Assay results as given in PubChem BioAssay (NCI).
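How tested: cells in 96-well plates exposed to compound for 48 hours at five concentrations. TGI: total growth inhibition.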

Experiments:
Test in all cases: NCI tumour cell line growth inhibition, 48 h
A549 NSCLC = test system: A549 NSCLC
RPMI-8226 leukemia = test system: RPMI-8226 leukemia
SK-MEL-2 melanoma = test system: SK-MEL-2 melanoma
NCI-H522 lung = test system: NCI-H522 lung
UACC-257 melanoma = test system: UACC-257 melanoma
NCI/ADR-RES ovarian = test system: NCI/ADR-RES ovarian
MDA-MB-435 = test system: MDA-MB-435
PC-3 prostate = test system: PC-3 prostate
SW-620 colon = test system: SW-620 colon
IGROV1 ovarian = test system: IGROV1 ovarian
SK-MEL-28 melanoma = test system: SK-MEL-28 melanoma
OVCAR-5 ovarian = test system: OVCAR-5 ovarian
BT-549 breast = test system: BT-549 breast
A498 renal = test system: A498 renal
HL-60(TB) leukemia = test system: HL-60(TB) leukemia
K-562 leukemia = test system: K-562 leukemia
DU-145 prostate = test system: DU-145 prostate
KM12 colon = test system: KM12 colon
MDA-MB-231 breast = test system: MDA-MB-231 breast
NCI-H23 lung = test system: NCI-H23 lung
CAKI-1 renal = test system: CAKI-1 renal
U251 CNS = test system: U251 CNS
NCI-H460 lung = test system: NCI-H460 lung
MOLT-4 leukemia = test system: MOLT-4 leukemia
SF-268 CNS = test system: SF-268 CNS
SNB-75 CNS = test system: SNB-75 CNS
LOX IMVI melanoma = test system: LOX IMVI melanoma
T-47D breast = test system: T-47D breast
UO-31 renal = test system: UO-31 renal
SNB-19 CNS = test system: SNB-19 CNS
HS 578T breast = test system: HS 578T breast
SK-MEL-5 melanoma = test system: SK-MEL-5 melanoma
HOP-92 NSCLC = test system: HOP-92 NSCLC
OVCAR-3 ovarian = test system: OVCAR-3 ovarian
HOP-62 NSCLC = test system: HOP-62 NSCLC
COLO 205 colon = test system: COLO 205 colon
SN12C renal = test system: SN12C renal
TK-10 renal = test system: TK-10 renal
RXF 393 renal = test system: RXF 393 renal
MALME-3M melanoma = test system: MALME-3M melanoma
MCF7 breast = test system: MCF7 breast
NCI-H226 lung = test system: NCI-H226 lung
OVCAR-4 ovarian = test system: OVCAR-4 ovarian
ACHN renal = test system: ACHN renal
EKVX NSCLC = test system: EKVX NSCLC
M14 melanoma = test system: M14 melanoma
HT29 colon = test system: HT29 colon
SF-539 CNS = test system: SF-539 CNS
HCC-2998 colon = test system: HCC-2998 colon
MDA-N = test system: MDA-N
OVCAR-8 ovarian = test system: OVCAR-8 ovarian

Measured: TGI

CCOC(=O)Cn1c(=O)c(C)cn(COCCO)c1=O
> 100 µM: all assays above
